Values of other authors as cited in patent publication US8618022B2, “Process for preparing an aqueous suspension of an organic pesticide compound” (priority 2009, dated 2013).
≈ marks a conversion by molar mass, not a printed value.

Details: at 20° C.

| Compound | solubility in water [µg/mL] |
| --- | --- |
| COC(=O)N(OC)c1ccccc1COc1ccn(-c2ccc(Cl)cc2)n1 [pyraclostrobin, methyl {2-[1-(4-chlorophenyl)pyrazol-3-yloxymethyl]phenyl}-(methoxy)carbamate] | < 2 |

Same assay, conditions: deionised water at 20° C.

| Compound | water solubility |
| --- | --- |
| Cc1c(COC(=O)[C@@H]2[C@H](/C=C(\Cl)C(F)(F)F)C2(C)C)cccc1-c1ccccc1 (racemic) [bifenthrin] | 0.1 mg/L (≈ 0.236 µM) |
| ClC1=C(Cl)C2(Cl)C3C4C=CC(C4)C3C1(Cl)C2(Cl)Cl (stereo not shown) [aldrin] | <<1 mg/l |
| CCCCN(CC)c1c([N+](=O)[O-])cc(C(F)(F)F)cc1[N+](=O)[O-] [benfluralin] | <1 mg/L |
| COP(=S)(OC)Oc1cc(Cl)c(Br)cc1Cl [bromophos] | 40 mg/L (≈ 109 µM) |
| CC(C)OC(=O)C(O)(c1ccc(Br)cc1)c1ccc(Br)cc1 [bromopropylate] | <5 mg/L |
| CCOP(=S)(OCC)ON=C(C#N)c1ccccc1Cl [chlorphoxim] | 2 mg/L (≈ 6.01 µM) |
| CCOP(=S)(OCC)Oc1nc(Cl)c(Cl)cc1Cl [chlorpyriphos] | 2 mg/L (≈ 5.7 µM) |
| CC1(C)CCC(Cc2ccc(Cl)cc2)C1(O)Cn1cncn1 (stereo not shown) [metconazol] | 1400 mg/L (≈ 4380 µM) |
| CC(C)OC(=O)c1cc(C(=O)OC(C)C)cc([N+](=O)[O-])c1 [nitrothal-isopropyl] | 0.4 mg/L (≈ 1.35 µM) |
| COP(=S)(OC)SCN1C(=O)c2ccccc2C1=O [phosmet] | 25 mg/L (≈ 78.8 µM) |
| O=C(Nc1ccc(F)cc1)c1cccc(Oc2cccc(C(F)(F)F)c2)n1 [picolinafen] | <0.1 mg/L |
| CO/C=C(/C(=O)OC)c1ccccc1COc1cccc(C(F)(F)F)n1 [picoxystrobin] | 3.1 mg/L (≈ 8.44 µM) |
